Results published in US10577373B2, “TYK2 inhibitors and uses thereof” (Nimbus Lakshmi, Inc., priority 2017, dated 2020).
Where two headings read alike, the source gives them in different places.

What was measured:
[1] = tested on: GM-CSF induced STAT5 phosphorylation mediated by the JAK2/JAK2 homdimeric complex; experiment: GM-CSF Induced pSTAT5 in Human PBMC; settings: GM-CSF 5 ng/mL for 20 minutes, pSTAT5
Excerpt: Human PBMC are isolated from buffy coat and are stored frozen for assays as needed.

[2] = tested on: IL-12 induced STAT4 phophorylation mediated by Tyk2/JAK2 (heterodimeric complex); experiment: IL-12 Induced pSTAT4 in Human PBMC; format: cell-based; settings: 1.7 ng/mL IL-12
Excerpt: The IL-12 Induced pSTAT4 assay evaluates the inhibition of IL-12 induced STAT4 phophorylation mediated by Tyk2/JAK2 (heterodimeric complex).

[3] = Homo sapiens, PBMC, 20 min, read-out: PBMC_GMCSF_pSTAT5 IC50, human PBMC
[4] = read-out: PBMC_GMCSF_pSTAT5 IC50, human PBMC

IC50 [1, 3] | IC50 [2] | IC50 [1, 4] | SMILES
> 2500 nM | < 100 nM | – | CNc1cc(Nc2cccn([C@H]3CC[C@H](OC)CC3)c2=O)nc2c(C(=O)N[C@@H]3CC[C@@H]3O)cnn12 [I-560]
> 50000 nM | < 100 nM | – | CNc1cc(Nc2cccnc2OC(C)C)nc2c(C(=O)N[C@H]3C[C@H]3F)cnn12 [I-147]
> 2500 nM | < 100 nM | – | CNc1cc(Nc2cc(Cl)cn(-c3ccn(C)n3)c2=O)nc2c(C(=O)NC3CC3)cnn12 [I-310]
> 2500 nM | < 100 nM | – | CNc1cc(Nc2cc(Cl)cn(C3CCCN(C)C3)c2=O)nc2c(C(=O)NC3CC3)cnn12 (stereo not shown) [I-740]
> 50000 nM | < 100 nM | – | CNc1cc(Nc2cccn(-c3cccc(F)c3)c2=O)nc2c(C(=O)N[C@@H]3CC[C@H]3O)cnn12 [I-946]
> 12500 nM | < 100 nM | – | CNc1cc(Nc2cccnc2OC)nc2c(C(=O)NC3CCC3)cnn12 [I-4]
> 50000 nM | < 100 nM | – | CNc1cc(Nc2cccn([C@H]3[C@@H]4COC[C@@H]43)c2=O)nc2c(C(=O)N[C@@H]3C[C@@H]3F)cnn12 [I-811]
> 50000 nM | < 100 nM | – | CNc1cc(Nc2cccn([C@H]3CC[C@H](OC)CC3)c2=O)nc2c(C(=O)NC3CCC3)cnn12 [I-345]
> 2500 nM | < 100 nM | – | CNc1cc(Nc2cccn(-c3ncc(C)s3)c2=O)nc2c(C(=O)NC3CCC3)cnn12 [I-263]
> 12500 nM | < 100 nM | – | CNc1cc(-c2cn(CCN3CCCCC3)c3ncccc23)nc2c(C(=O)N[C@H]3C[C@H]3F)cnn12 [I-585]
> 2500 nM | < 100 nM | – | CNc1cc(Nc2cc(F)cnc2OCCOC)nc2c(C(=O)NC3CCC3)cnn12 [I-290]
> 50000 nM | < 100 nM | – | CNc1cc(Nc2cc(C)cc(C)c2)nc2c(C(N)=O)cnn12 [I-2, 5-((3,5-dimethylphenyl)amino)-7-(methylamino)pyrazolo[1,5-a]pyrimidine-3-carboxamide]
> 12500 nM | < 100 nM | – | CNc1cc(Nc2cccn(-c3ccn(C4CC4)n3)c2=O)nc2c(C(=O)N[C@@H]3C[C@@H]3F)cnn12 (stereo in doubt) [I-106, 5-((1-(1-cyclopropyl-1H-pyrazol-3-yl)-2-oxo-1,2-dihydropyridin-3-yl)amino)-N-((1R,2S)-2-fluorocyclopropyl)-7-(methylamino)pyrazolo[1,5-a]pyrimidine-3-carboxamide]
> 50000 nM | 100 to 500 nM | – | CNc1cc(Nc2cccnc2OC2CC2)nc2c(C(=O)N[C@H]3COC[C@H]3O)cnn12 [I-547]
> 2500 nM | < 100 nM | – | CNc1cc(Nc2cccn(C3CC4(COC4)C3)c2=O)nc2c(C(=O)N[C@@H]3C[C@@H]3F)cnn12 [I-551, N-((1R,2S)-2-fluorocyclopropyl)-7-(methylamino)-5-((2-oxo-1-(2-oxaspiro[3.3]heptan-6-yl)-1,2-dihydropyridin-3-yl)amino)pyrazolo[1,5-a]pyrimidine-3-carboxamide]
> 50000 nM | < 100 nM | – | CNc1cc(Nc2cccc([C@@H]3CCCOC3)n2)nc2c(C(=O)N[C@H]3C[C@H]3F)cnn12 [I-562]
> 50000 nM | < 100 nM | – | CNc1cc(-c2cn(C3CC3)c3ncccc23)nc2c(C(=O)NC3CC3)cnn12 [I-960, N-cyclopropyl-5-(1-cyclopropyl-1H-pyrrolo[2,3-b]pyridin-3-yl)-7-(methylamino)pyrazolo[1,5-a]pyrimidine-3-carboxamide]
> 12500 nM | 100 to 500 nM | – | CNc1cc(Nc2cccn([C@H]3CC[C@@](C)(OC)CC3)c2=O)nc2c(C(=O)NC3CC3)cnn12 [I-359]
> 50000 nM | < 100 nM | – | CNc1cc(-c2cn(C3CC3)c3ncccc23)nc2c(C(=O)N[C@@H]3C[C@@H]3F)cnn12 [I-961, 5-(1-cyclopropyl-1H-pyrrolo[2,3-b]pyridin-3-yl)-N-((1R,2S)-2-fluorocyclopropyl)-7-(methylamino)pyrazolo[1,5-a]pyrimidine-3-carboxamide]
> 50000 nM | < 100 nM | – | CNc1cc(Nc2cccn(C[C@@H]3CCCCO3)c2=O)nc2c(C(=O)N[C@@H]3C[C@@H]3F)cnn12 [I-428]
> 50000 nM | < 100 nM | – | CNc1cc(Nc2cccn([C@H]3CC[C@](C)(OC)CC3)c2=O)nc2c(C(=O)N[C@H]3C[C@H]3F)cnn12 [I-362]
– | < 100 nM | > 50000 nM | CNc1cc(Nc2cccn(-c3ccccn3)c2=O)nc2c(C(=O)N[C@@H]3CC[C@H]3OC)cnn12 [I-908, N-((1R,2R)-2-methoxycyclobutyl)-7-(methylamino)-5-((2-oxo-2H-[1,2′-bipyridin]-3-yl)amino)pyrazolo[1,5-a]pyrimidine-3-carboxamide]
> 50000 nM | < 100 nM | – | CNc1cc(Nc2cccn(-c3nc(C)co3)c2=O)nc2c(C(=O)N[C@@H]3CC[C@@H]3O)cnn12 [I-706]
> 50000 nM | < 100 nM | – | CNc1cc(-c2cn(C(C)C)c3ncc(C)cc23)nc2c(C(N)=O)cnn12 [I-255]
> 50000 nM | < 100 nM | – | CNc1cc(Nc2cccn(-c3cccc(C(C)(C)O)n3)c2=O)nc2c(C(=O)N[C@H]3C[C@H]3F)cnn12 [I-123]
> 2500 nM | < 100 nM | – | CNc1cc(Nc2cccnc2OC)nc2c(C(=O)NCC(C)(C)CO)cnn12 [I-346]
– | < 100 nM | > 12500 nM | CNc1cc(-c2cn(C(C)C)c3ncccc23)nc2c(C(=O)N[C@H]3CC[C@@H]3O)cnn12 [I-639]

IC50 [1, 3] | IC50 [2] | IC50 [1, 4] | SMILES
– | < 100 nM | > 12500 nM | CNc1cc(Nc2cccn([C@H]3CC[C@](C)(OC)CC3)c2=O)nc2c(C(=O)N[C@@H]3CC[C@@H]3O)cnn12 [I-722, N-((1S,2R)-2-hydroxycyclobutyl)-5-((1-((1R,4S)-4-methoxy-4-methylcyclohexyl)-2-oxo-1,2-dihydropyridin-3-yl)amino)-7-(methylamino)pyrazolo[1,5-a]pyrimidine-3-carboxamide]
> 2500 nM | < 100 nM | – | CNc1cc(Nc2cccn([C@H]3CCCOC3)c2=O)nc2c(C(=O)N[C@@H]3CC[C@H]3O)cnn12 [I-725]
> 50000 nM | 100 to 500 nM | – | CNc1cc(Nc2cccnc2OC(C)C)nc2c(C(=O)NC3CCC3)cnn12 [I-145]
> 12500 nM | < 100 nM | – | CNc1cc(Nc2cccn3ccnc23)nc2c(C(=O)N[C@@H]3C[C@@H]3F)cnn12 [I-892]
> 50000 nM | < 100 nM | – | CNc1cc(Nc2cccn([C@H]3CCCOC3)c2=O)nc2c(C(=O)NC3CC3)cnn12 [I-352]
> 50000 nM | < 100 nM | – | CNc1cc(Nc2cccn([C@H]3CC[C@H](OC)CC3)c2=O)nc2c(C(=O)NC[C@H](C)CO)cnn12 [I-829]
> 12500 nM | 100 to 500 nM | – | CNc1cc(Nc2cccn(-c3cn(C)nc3F)c2=O)nc2c(C(=O)NC3CC3)cnn12 [I-606]
> 50000 nM | < 100 nM | – | CNc1cc(Nc2cc(Cl)cn(C3CCN(C)CC3)c2=O)nc2c(C(=O)N[C@@H]3CC[C@H]3O)cnn12 [I-930]
> 50000 nM | < 100 nM | – | CNc1cc(Nc2cccn(-c3cncc(C)c3)c2=O)nc2c(C(=O)NC3CCC3)cnn12 [I-303]
> 12500 nM | < 100 nM | – | CNc1cc(Nc2cccc([C@H]3CCCOC3)n2)nc2c(C(=O)N[C@@H]3CC[C@H]3O)cnn12 [I-667]
> 2500 nM | < 100 nM | – | CNc1cc(Nc2cccn(-c3ncc(C)s3)c2=O)nc2c(C(=O)NC3CC3)cnn12 [I-261, N-cyclopropyl-7-(methylamino)-5-((1-(5-methylthiazol-2-yl)-2-oxo-1,2-dihydropyridin-3-yl)amino)pyrazolo[1,5-a]pyrimidine-3-carboxamide]
> 300 nM | < 100 nM | – | CNc1cc(Nc2cccc(N3CCCC3=O)n2)nc2c(C(N)=O)cnn12 [I-47]
> 50000 nM | < 100 nM | – | CNc1cc(Nc2cccn([C@H]3CC[C@](C)(OC)CC3)c2=O)nc2c(C(=O)N[C@@H]3CC[C@H]3OC)cnn12 [I-959]
> 12500 nM | < 100 nM | – | CNc1cc(Nc2cc(Cl)cn(C3CCOCC3)c2=O)nc2c(C(=O)N[C@H]3CC[C@@H]3O)cnn12 [I-712]
> 2500 nM | < 100 nM | – | CNc1cc(Nc2cccn(-c3ccc(N4CCOCC4)cn3)c2=O)nc2c(C(=O)NC3CCC3)cnn12 [I-163]
– | 100 to 500 nM | > 50000 nM | CNc1cc(Nc2cccc3ocnc23)nc2c(C(=O)N[C@@H]3CC[C@H]3O)cnn12 [I-857]
> 50000 nM | < 100 nM | – | CNc1cc(-c2cn(C(C)C)c3ncccc23)nc2c(C(=O)NC3CCC3)cnn12 [I-224]
> 2500 nM | < 100 nM | – | CNc1cc(Nc2cccc([C@@H]3CCCOC3)n2)nc2c(C(=O)N[C@H]3CC[C@@H]3O)cnn12 [I-603]
> 50000 nM | < 100 nM | – | CNc1cc(Nc2cc(F)cnc2OC2CC2)nc2c(C(=O)NC3CCC3)cnn12 [I-276]
> 50000 nM | < 100 nM | – | CNc1cc(Nc2cccn(CC3CCCCO3)c2=O)nc2c(C(=O)N[C@H]3C[C@H]3F)cnn12 (stereo partly shown) [I-365]
> 50000 nM | < 100 nM | – | CNc1cc(Nc2cc(Cl)cn(-c3ccc(C)nn3)c2=O)nc2c(C(=O)N[C@H]3C[C@H]3F)cnn12 [I-164]
> 50000 nM | < 100 nM | – | CNc1cc(Nc2cccnc2OC2CC2)nc2c(C(=O)NCC(C)(C)CO)cnn12 [I-350]
> 2500 nM | < 100 nM | – | CNc1cc(Nc2cc(F)cn(-c3cc(C)n(C)n3)c2=O)nc2c(C(=O)N[C@H]3C[C@H]3F)cnn12 [I-385]
> 12500 nM | < 100 nM | – | CNc1cc(Nc2cc(Cl)cn(C3CCN(C)CC3)c2=O)nc2c(C(=O)N[C@@H]3C[C@@H]3F)cnn12 [I-789]
> 12500 nM | < 100 nM | – | CNc1cc(Nc2cc(Cl)cn(-c3ccc(C4CC4)nn3)c2=O)nc2c(C(=O)NC3CC3)cnn12 [I-333]
> 50000 nM | < 100 nM | – | CNc1cc(Nc2cccn([C@@H]3CCC[C@H](OC)C3)c2=O)nc2c(C(=O)NCC(C)(C)CO)cnn12 [I-951]
